Assay results: patent publication US20050234076A1, “Triazolopyrimidines” (priority 2002, published 2005)

tested on: Botrytis cinerea; test: Botrytis Test (bean)/protective; format: in vivo; details: 48 h, bean plants, protective spray, evaluation 2 days after inoculation, 100% = no infection, read-out: Efficacy in %
Description: Botrytis Test (bean)/protective
Solvents: 24.5 parts by weight of acetone • 24.5 parts by of dimethylacetamide
Emulsifier: 1.0 part by weight of alkylaryl polyglycol ether
To produce a suitable preparation of active compound, 1 part by weight of active compound is mixed with the stated amounts of solvent and emulsifier, and the concentrate is diluted with water to the desired concentration.
To test for protective activity, young plants are sprayed with the preparation of active compound at the stated application rate. After the spray coating has dried on, 2 small pieces of agar colonized by Botrytis cinerea are placed onto each leaf. The inoculated plants are placed in a dark chamber at about 20° C. and 100% relative atmospheric humidity.
2 days after the inoculation the size of the infected areas on the leaves is evaluated. 0% means an efficacy which corresponds to that of the control, whereas an efficacy of 100% means that no infection is observed.

SMILES | pest or weed control at 500 g/ha [%]
Fc1cc(F)c(-c2c(Cl)nc3ncnn3c2N2CCCCN2)c(F)c1 [drawing 77] | 100
Fc1cc(F)c(-c2c(Cl)nc3ncnn3c2N2NC3CCC2C3)c(F)c1 (stereo not shown) [drawing 93] | 96
Fc1cc(F)c(-c2c(Cl)nc3ncnn3c2N2Cc3ccccc3CO2)c(F)c1 [drawing 72] | 100
Fc1cccc(Cl)c1-c1c(Cl)nc2ncnn2c1N1NC2CCC1C2 (stereo not shown) [drawing 94] | 100
Fc1ccc(-c2c(Cl)nc3ncnn3c2N2OC3CCC2C3)c(F)c1 (stereo not shown) [drawing 88] | 99
Fc1ccc(-c2c(Cl)nc3ncnn3c2N2OC3CCC2C3)c(Cl)c1 (stereo not shown) [drawing 90] | 100
Clc1cccc(Cl)c1-c1c(Cl)nc2ncnn2c1N1CCCCN1 [drawing 92] | 99
CC1CCON1c1c(-c2c(F)cc(F)cc2F)c(Cl)nc2ncnn12 (stereo not shown) [drawing 83] | 100
Fc1cc(C(F)(F)F)cc(F)c1-c1c(Cl)nc2ncnn2c1N1CCCCN1 [drawing 98] | 95
Clc1ccc(-c2c(Cl)nc3ncnn3c2N2CCCCN2)c(Cl)c1 [drawing 97] | 95
Fc1cc(F)c(-c2c(Cl)nc3ncnn3c2N2CCCCO2)c(F)c1 [drawing 73] | 100
Fc1cc(F)c(-c2c(Cl)nc3ncnn3c2N2OC3CCC2C3)c(F)c1 (stereo not shown) [drawing 81] | 98
Clc1ccccc1-c1c(Cl)nc2ncnn2c1N1OC2CCC1C2 (stereo not shown) [drawing 84] | 93
Fc1cccc(Cl)c1-c1c(Cl)nc2ncnn2c1N1OC2CCC1C2 (stereo not shown) [drawing 86] | 100
CC1C=CCN(c2c(-c3c(F)cc(F)cc3F)c(Cl)nc3ncnn23)O1 (stereo not shown) [drawing 80] | 93
Fc1ccc(-c2c(Cl)nc3ncnn3c2N2CCCCO2)c(F)c1 [drawing 75] | 100
Fc1cc(F)c(-c2c(Cl)nc3ncnn3c2N2CCC=N2)c(F)c1 [drawing 91] | 100
CC1CCON1c1c(-c2c(F)cccc2Cl)c(Cl)nc2ncnn12 (stereo not shown) [drawing 87] | 100
CC1CCCON1c1c(-c2c(F)cc(F)cc2F)c(Cl)nc2ncnn12 (stereo not shown) [drawing 82] | 100
Fc1cc(F)c(-c2c(Cl)nc3ncnn3c2N2CC=CCO2)c(F)c1 | 100
Fc1cc(F)c(-c2c(Br)nc3ncnn3c2N2CCCCN2)c(F)c1 [drawing 99] | 100
Fc1ccc(-c2c(Cl)nc3ncnn3c2N2CCCCO2)c(Cl)c1 [drawing 74] | 100
Fc1cccc(Cl)c1-c1c(Cl)nc2ncnn2c1N1CCCCN1 [drawing 76] | 100
Fc1cccc(F)c1-c1c(Cl)nc2ncnn2c1N1CCCCO1 [drawing 85] | 100
Fc1cc(F)c(-c2c(Cl)nc3ncnn3c2N2CCCCN2)c(C(F)(F)F)c1 [drawing 96] | 100
Fc1cccc(F)c1-c1c(Cl)nc2ncnn2c1N1CCCCN1 [drawing 95] | 95
CC1CCCON1c1c(-c2ccccc2Cl)c(Cl)nc2ncnn12 (stereo not shown) [drawing 89] | 99
Fc1cc(F)c(-c2c(Cl)nc3ncnn3c2N2OC3CCC2C3)c(C(F)(F)F)c1 (stereo not shown) [drawing 78] | 100

tested on: Venturia inaequalis; test: Venturia Test (apple)/protective; format: in vivo; details: 240 h, apple plants, protective spray, evaluation 10 days after inoculation, 100% = no infection, read-out: Efficacy in %
Description: Venturia Test (apple)/protective Solvents: 24.5 parts by weight of acetone • 24.5 parts by weight of dimethylacetamide Emulsifier: 1.0 parts by weight alkylaryl polyglycol ether To produce a suitable preparation of active compound, 1 part by weight of active compound is mixed with the stated amounts of solvent and emulsifier, and the concentrate is diluted with water to the desired concentration. To test for protective activity, young plants are sprayed with the preparation of active compound at the stated application rate. […] The plants are then placed in a greenhouse at about 21° C. and a relative atmospheric humidity of about 90%.

SMILES | pest or weed control at 100 g/ha [%]
Fc1cc(F)c(-c2c(Cl)nc3ncnn3c2N2CCCCO2)c(F)c1 [drawing 46] | 100
Fc1cc(F)c(-c2c(Cl)nc3ncnn3c2N2OC3CCC2C3)c(F)c1 (stereo not shown) [drawing 51] | 100
CC1CCCON1c1c(-c2c(F)cc(F)cc2F)c(Cl)nc2ncnn12 (stereo not shown) [drawing 54] | 100
Clc1ccccc1-c1c(Cl)nc2ncnn2c1N1OC2CCC1C2 (stereo not shown) [drawing 56] | 99
Fc1cc(F)c(-c2c(Cl)nc3ncnn3c2N2CCC=N2)c(F)c1 [drawing 63] | 96

tested on: not listed separately; test: physchem; details: not given

chromatographic logP | SMILES
2.73 | Fc1cc(F)c(-c2c(Br)nc3ncnn3c2N2CCCCN2)c(F)c1 [Example 24]
2.47 | Fc1cccc(F)c1-c1c(Cl)nc2ncnn2c1N1CCCCN1 [Example 63]
3.53 | Fc1cc(F)c(-c2c(Cl)nc3ncnn3c2N2Cc3ccccc3CO2)c(F)c1 [Example 5]
2.34 | Fc1cc(F)c(-c2c(Cl)nc3ncnn3c2N2CCC=N2)c(F)c1 [Example 11]
3.17 | CC1CCCON1c1c(-c2ccccc2Cl)c(Cl)nc2ncnn12 (stereo not shown) [Example 41]
3.26 | Fc1cc(C(F)(F)F)cc(F)c1-c1c(Cl)nc2ncnn2c1N1CCCCN1 [Example 68]
2.74 | CC1CCON1c1c(-c2c(F)cccc2Cl)c(Cl)nc2ncnn12 (stereo not shown) [Example 42]
2.74 | Fc1cccc(Cl)c1-c1c(Cl)nc2ncnn2c1N1OC2CCC1C2 (stereo not shown) [Example 34]
3.23 | CC1CCCON1c1c(-c2c(F)cc(F)cc2F)c(Cl)nc2ncnn12 (stereo not shown) [Example 35]
3.06 | Fc1cc(F)c(-c2c(Cl)nc3ncnn3c2N2CCCCN2)c(C(F)(F)F)c1 [Example 67]
2.65 | Fc1cc(F)c(-c2c(Cl)nc3ncnn3c2N2NC3CCC2C3)c(F)c1 (stereo not shown) [Example 27]
2.59 | Fc1cccc(Cl)c1-c1c(Cl)nc2ncnn2c1N1NC2CCC1C2 (stereo not shown) [Example 28]
2.67 | Fc1ccc(-c2c(Cl)nc3ncnn3c2N2OC3CCC2C3)c(F)c1 (stereo not shown) [Example 43]
2.92 | Fc1cc(F)c(-c2c(Cl)nc3ncnn3c2N2CCCCO2)c(F)c1 [Example 6]
2.76 | CC1CCON1c1c(-c2c(F)cc(F)cc2F)c(Cl)nc2ncnn12 (stereo not shown) [Example 1, 5-chloro-6-(2,4,6-trifluorophenyl)-7-(3-methyl-2-isoxazolidinyl)[1,2,4]triazolo[1,5-a]pyrimidine]
2.88 | Clc1cccc(Cl)c1-c1c(Cl)nc2ncnn2c1N1CCCCN1 [Example 21]
3.12 | CC1C=CCN(c2c(-c3c(F)cc(F)cc3F)c(Cl)nc3ncnn23)O1 (stereo not shown) [Example 58]
2.69 | Clc1ccccc1-c1c(Cl)nc2ncnn2c1N1OC2CCC1C2 (stereo not shown) [Example 33]
3.22 | Clc1ccc(-c2c(Cl)nc3ncnn3c2N2CCCCN2)c(Cl)c1 [Example 69]
1.22 | CCOC(=O)N1OCCC1C (stereo not shown) [N-ethoxycarbonyl-3-methylisoxazolidine]
2.68 | Fc1cc(F)c(-c2c(Cl)nc3ncnn3c2N2CCCCN2)c(F)c1 [Example 10]
2.75 | Fc1cc(F)c(-c2c(Cl)nc3ncnn3c2N2OC3CCC2C3)c(F)c1 (stereo not shown) [Example 18]
2.89 | Fc1ccc(-c2c(Cl)nc3ncnn3c2N2OC3CCC2C3)c(Cl)c1 (stereo not shown) [Example 44]
3.1 | Fc1cc(F)c(-c2c(Cl)nc3ncnn3c2N2OC3CCC2C3)c(C(F)(F)F)c1 (stereo not shown) [Example 46]
2.68 | Fc1cccc(F)c1-c1c(Cl)nc2ncnn2c1N1CCCCO1 [Example 31]

SMILES | chromatographic logP
Fc1cccc(Cl)c1-c1c(Cl)nc2ncnn2c1N1CCCCN1 [Example 12] | 2.67
Fc1ccc(-c2c(Cl)nc3ncnn3c2N2CCCCO2)c(Cl)c1 [Example 8] | 3.11
Fc1ccc(-c2c(Cl)nc3ncnn3c2N2CCCCO2)c(F)c1 [Example 9] | 2.84
